Structures can show the parent of a compound that is named as a salt.
Experiments:
[1] = test system: anesthetized supine rats with spontaneous obstructive apneas; test: Spontaneous obstructive apnea model; assay type: in vivo, rat
Experimental: Two rodent models of obstructive apnea were used: one that modeled spontaneous obstructions (spontaneous obstructive apnea model) which become progressively worse over time, and another (evoked obstructive apnea model) where the investigator retained control over the variables that define OSA severity, such as apnea frequency (f OA) and apnea duration (OA t).
The majority of studies were conducted using the spontaneous obstructive apnea model, where rats were positioned in dorsal recumbency (supine), and permitted to breathe spontaneously on room air. Air flow was measured continuously by whole-body plethysmography. […] OA were defined as periods of no air flow for more than 2 respiratory cycles accompanied by efforts to breathe (e.g., increased transthoracic esophageal inspiratory pressure). After neck flexion, eupnea became increasingly interrupted by clusters of upper airway obstructions (f OA 30±3 hr^−1 (mean±SEM), range: 13 to 94 hr^−1; OA t 11±3 s, range: 6 to 15 s). OA severity was further quantified by the peak change in hemoglobin oxygen saturation during an obstruction (ΔSpO2: −20±1%, range: −11 to −31%). Clustered OAs were often separated by long periods of eupneic breathing, which presumably returned when activation of a relevant afferent/effector reflex (e.g., chemoreceptor driven increased motor drive to the genioglossus muscle) reached a threshold necessary to reestablish a patent upper airway.
All animal experiments were performed according to protocols approved by the Institutional Animal Care and Use Committee (IACUC) at Galleon Pharmaceuticals, Inc. All experimental procedures were performed under general anesthesia. All experiments were non-survival procedures and animals were euthanized at the conclusion of the experiment prior to the animal recovering from anesthesia. Two rodent models of obstructive apnea were used, one that modeled spontaneous obstructions that become progressively worse over time (Spontaneous Obstructive Apnea Model), and another where the investigator retained control over the parameters that defined OSA severity, such as f OA, and OA t, and by controlling these directly also controlling of the magnitude of oxy-hemoglobin desaturation (Evoked Obstructive Apnea Model).
Rats were initially anesthetized in a rodent anesthesia induction chamber using 3% (dial setting) isoflurane in 97% oxygen (O2) for surgical instrumentation. When rats had become recumbent they were removed from the chamber and placed in dorsal recumbency (supine) on a heating pad. Anesthesia was maintained with 2% isoflurane in 98% oxygen and rats were permitted to breathe spontaneously on room air. After instrumentation, isoflurane was slowly discontinued and urethane (1.5 to 1.8 g/kg, IV) administered to maintain anesthesia without interruption. Supplemental oxygen was discontinued at this time.
The femoral artery was cannulated to permit continuous recording of arterial blood pressure and intermittent sampling of blood for pH and blood gas analyses, and single time point quantification of test article plasma concentrations. The femoral vein was cannulated to permit test compound administration and fluid support. The arterial cannula was connected to a heparinized saline filled pressure transducer. The arterial pressure waveforms were sampled at 2K/second and band-pass filtered between 0-1000 Hz. […]

anesthetized rats = test: Anesthetized rat spirometry screening assay (ventilatory activity, minute volume); assay type: in vivo; conditions: 0.3 mg/kg IV bolus, increase in minute volume (VE), read-out: VE % Inc @ 0.3 mg/kg IV
Outline: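 Urethane-anesthetized (1.5 g/kg i.v.) rats with tracheal cannula to pneumotachometer; minute volume derived from respiratory rate × tidal volume. Compounds given as i.v. bolus at 0.1 and/or 0.3 and/or 3 mg/kg, monitored at least 6 min; data as 30 s averages.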

For `CCCNc1nc(NC)nc2c(NCC(C)(C)O)nc(NC)nc12` [Compound 31a, 1-(2,6-Bis-methylamino-8-propylamino-pyrimido[5,4-d]pyrimidin-4-ylamino)-2-methyl-propan-2-ol Hydrochloride], the SpO2 desaturations ([1]; FIG. 18, model not named in the legend) was “reduction”, the “frequency of obstructive apneas (OA)” value ([1]; FIG. 19, model not named in the legend) was “reduction” and the “arterial oxygen content deficit” value ([1]; FIG. 20, model not named in the legend) was “reduction”. For the same molecule, the “upper airway (total genioglossus EMG amplitude) response to spontaneous obstructive apneas” value ([1]; FIG. 22) was “increase”, the “upper airway response (genioglossus activity) to spontaneous obstructive apneas” value ([1]; IV infusion, FIG. 23) was “dose-dependently increases” and the change in vivo at 0.3 mg/kg (anesthetized rats) was 69%.
